Measurements: patent US11945822B2, “Pyrazolo-triazine and/or pyrazolo-pxrimidine derivatives as selective inhibitor of cyclin dependent kinase” (QURIENT CO., LTD., priority 2018, dated 2024)
pIC50: −log10 of the molar value.

target: T1, CDK1/Cyclin B (Homo sapiens, UniProt P06493); test: Enzymatic assay for CDK1 (FRET based LANCE Ultra kinase assay); type: biochemical; conditions: read-out: CDK1 enzymatic activity (IC50 activity range)
T1 construct: purchased Invitrogen PR4768C
In short: (§1)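 LANCE Ultra TR-FRET: ULight-MBP peptide (68 nM) with ATP at Km, […], 60 min at 23° C. EDTA plus Eu-anti-phospho-MBP added, another 60 min, then 665/615 nm emission read. Compounds tested as 8-dose 4-fold DMSO dilutions.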

T1 sequence (P06493 whole entry): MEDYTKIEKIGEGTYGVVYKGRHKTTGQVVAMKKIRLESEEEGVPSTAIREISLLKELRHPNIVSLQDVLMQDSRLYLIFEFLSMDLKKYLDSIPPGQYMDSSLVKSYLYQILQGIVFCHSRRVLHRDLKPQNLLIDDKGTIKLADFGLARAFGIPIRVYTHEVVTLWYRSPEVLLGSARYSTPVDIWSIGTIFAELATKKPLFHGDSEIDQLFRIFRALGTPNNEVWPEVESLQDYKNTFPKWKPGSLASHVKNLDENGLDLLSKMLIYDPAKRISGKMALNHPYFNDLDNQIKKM
T1 sequence (P14635 whole entry partner): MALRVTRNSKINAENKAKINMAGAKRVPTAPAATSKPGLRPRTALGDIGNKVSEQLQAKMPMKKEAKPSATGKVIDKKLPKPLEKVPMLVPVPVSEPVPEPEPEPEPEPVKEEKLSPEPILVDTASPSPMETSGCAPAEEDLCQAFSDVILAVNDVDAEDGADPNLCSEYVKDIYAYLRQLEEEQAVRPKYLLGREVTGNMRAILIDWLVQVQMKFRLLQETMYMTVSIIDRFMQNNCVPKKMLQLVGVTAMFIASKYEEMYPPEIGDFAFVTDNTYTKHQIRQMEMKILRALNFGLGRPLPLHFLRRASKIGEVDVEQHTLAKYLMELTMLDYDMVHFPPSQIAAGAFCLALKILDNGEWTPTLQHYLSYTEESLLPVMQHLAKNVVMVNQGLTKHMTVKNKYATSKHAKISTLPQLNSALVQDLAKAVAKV

pIC50	SMILES
< 6.00	CCC(O)(CC)c1ccn(-c2cccc(Cl)c2CNc2nc(N3CCC(N)CC3)nc3c(C(C)C)cnn23)n1 [Compound 253]
< 6.00	CC(C)c1cnn2c(NCc3c(Cl)cccc3N3CC[C@@H](C(C)(C)O)C3)nc(N3CCC(N)CC3)nc12 [Compound 254]
< 6.00	CC(C)c1cnn2c(NCc3cccc4ccc(C(C)(C)O)nc34)nc(N3CCC(N)CC3)nc12 [Compound 255]

target: T2, CDK2/Cyclin A (Homo sapiens, UniProt P24941); test: Enzymatic assay for CDK2 (FRET based LANCE Ultra kinase assay); type: biochemical; conditions: read-out: CDK2 enzymatic activity (IC50 activity range)
T2 construct: purchased Invitrogen PV6290
In short: as §1

pIC50	SMILES
< 6.00	CCC(O)(CC)c1ccn(-c2cccc(Cl)c2CNc2nc(N3CCC(N)CC3)nc3c(C(C)C)cnn23)n1 [Compound 253]
< 6.00	CC(C)c1cnn2c(NCc3c(Cl)cccc3N3CC[C@@H](C(C)(C)O)C3)nc(N3CCC(N)CC3)nc12 [Compound 254]
< 6.00	CC(C)c1cnn2c(NCc3cccc4ccc(C(C)(C)O)nc34)nc(N3CCC(N)CC3)nc12 [Compound 255]

target: T3, CDK5/p25 (Homo sapiens, UniProt Q00535); test: Enzymatic assay for CDK5 (FRET based LANCE Ultra kinase assay); type: biochemical; conditions: read-out: CDK5 enzymatic activity (IC50 activity range)
T3 construct: purchased Invitrogen PR8543B
T3 sequence (Q00535 whole entry): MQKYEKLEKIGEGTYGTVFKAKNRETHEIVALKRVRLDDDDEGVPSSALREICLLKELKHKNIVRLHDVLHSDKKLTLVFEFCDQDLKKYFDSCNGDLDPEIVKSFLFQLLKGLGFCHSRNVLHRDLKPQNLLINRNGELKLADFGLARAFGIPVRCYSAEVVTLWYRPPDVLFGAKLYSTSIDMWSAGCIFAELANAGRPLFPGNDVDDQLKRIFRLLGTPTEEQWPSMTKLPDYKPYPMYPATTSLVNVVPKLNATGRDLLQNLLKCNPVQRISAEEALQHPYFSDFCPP
T3 sequence (Q15078 99-307 partner limits assumed): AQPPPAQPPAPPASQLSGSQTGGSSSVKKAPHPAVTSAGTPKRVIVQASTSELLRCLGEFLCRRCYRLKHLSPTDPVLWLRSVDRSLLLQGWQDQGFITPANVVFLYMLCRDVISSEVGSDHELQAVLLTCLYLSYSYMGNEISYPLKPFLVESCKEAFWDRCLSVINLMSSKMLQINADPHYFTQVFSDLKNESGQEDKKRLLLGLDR
In short: as §1

pIC50	SMILES
< 6.00	CCC(O)(CC)c1ccn(-c2cccc(Cl)c2CNc2nc(N3CCC(N)CC3)nc3c(C(C)C)cnn23)n1 [Compound 253]
6.00 to 7.00	CC(C)c1cnn2c(NCc3c(Cl)cccc3N3CC[C@@H](C(C)(C)O)C3)nc(N3CCC(N)CC3)nc12 [Compound 254]
6.00 to 7.00	CC(C)c1cnn2c(NCc3cccc4ccc(C(C)(C)O)nc34)nc(N3CCC(N)CC3)nc12 [Compound 255]

target: T4, CDK7/Cyclin H/MNAT1 (Homo sapiens, UniProt P50613); test: Enzymatic assay for CDK7 (FRET based LANCE Ultra kinase assay); type: biochemical; conditions: CDK1/CDK7
T4 construct: purchased Invitrogen PR6749B
T4 sequence (P50613 whole entry): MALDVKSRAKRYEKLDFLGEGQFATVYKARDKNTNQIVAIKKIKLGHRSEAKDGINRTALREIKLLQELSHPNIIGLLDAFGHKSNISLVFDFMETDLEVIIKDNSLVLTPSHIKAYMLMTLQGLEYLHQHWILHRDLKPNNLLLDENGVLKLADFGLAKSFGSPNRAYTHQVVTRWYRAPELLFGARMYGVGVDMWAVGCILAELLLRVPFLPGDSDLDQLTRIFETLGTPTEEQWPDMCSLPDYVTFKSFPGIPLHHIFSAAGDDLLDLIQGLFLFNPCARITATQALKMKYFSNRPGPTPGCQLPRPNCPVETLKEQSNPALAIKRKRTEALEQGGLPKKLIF
T4 sequence (P51946 whole entry partner): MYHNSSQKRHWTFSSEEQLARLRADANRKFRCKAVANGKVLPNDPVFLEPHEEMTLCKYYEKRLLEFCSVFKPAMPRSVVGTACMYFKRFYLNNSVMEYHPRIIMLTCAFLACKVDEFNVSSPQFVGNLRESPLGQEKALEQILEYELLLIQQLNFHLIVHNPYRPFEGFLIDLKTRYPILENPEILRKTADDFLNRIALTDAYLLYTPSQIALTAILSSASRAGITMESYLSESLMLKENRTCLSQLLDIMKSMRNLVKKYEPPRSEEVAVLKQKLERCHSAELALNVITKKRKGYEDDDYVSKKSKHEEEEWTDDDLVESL
T4 sequence (P51948 whole entry partner): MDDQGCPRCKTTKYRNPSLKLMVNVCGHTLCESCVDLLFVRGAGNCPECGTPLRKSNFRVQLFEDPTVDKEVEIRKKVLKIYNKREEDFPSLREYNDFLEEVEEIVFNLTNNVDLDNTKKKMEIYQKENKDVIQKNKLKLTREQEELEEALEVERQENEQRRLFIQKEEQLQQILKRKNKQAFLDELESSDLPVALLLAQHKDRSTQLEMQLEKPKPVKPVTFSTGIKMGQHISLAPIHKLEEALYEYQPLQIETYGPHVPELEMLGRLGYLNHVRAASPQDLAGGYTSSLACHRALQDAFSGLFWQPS
In short: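 LANCE Ultra TR-FRET kinase assay using a ULight-labeled peptide substrate and a Eu-labeled anti-phospho antibody, with ATP at its Km. Purified CDK/cyclin complex was added to compound after brief centrifugation.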

CDK1/CDK7: Selectivity of CDK7 inhibition over CDK1 inhibition	SMILES
A (A=greater than 200 fold)	CC(C)c1cnn2c(NCc3c(Cl)cccc3N3CC[C@@H](C(C)(C)O)C3)nc(N3CCC(N)CC3)nc12 [Compound 254]
A (A=greater than 200 fold)	CC(C)c1cnn2c(NCc3cccc4ccc(C(C)(C)O)nc34)nc(N3CCC(N)CC3)nc12 [Compound 255]

SMILES	CDK1/CDK7: Selectivity of CDK7 inhibition over CDK1 inhibition
CCC(O)(CC)c1ccn(-c2cccc(Cl)c2CNc2nc(N3CCC(N)CC3)nc3c(C(C)C)cnn23)n1 [Compound 253]	B (B=less than 200 fold, but greater than 20 fold)

same assay, conditions: CDK2/CDK7

SMILES	CDK2/CDK7: Selectivity of CDK7 inhibition over CDK2 inhibition
CCC(O)(CC)c1ccn(-c2cccc(Cl)c2CNc2nc(N3CCC(N)CC3)nc3c(C(C)C)cnn23)n1 [Compound 253]	B (B=less than 200 fold, but greater than 20 fold)
CC(C)c1cnn2c(NCc3c(Cl)cccc3N3CC[C@@H](C(C)(C)O)C3)nc(N3CCC(N)CC3)nc12 [Compound 254]	B (B=less than 200 fold, but greater than 20 fold)
CC(C)c1cnn2c(NCc3cccc4ccc(C(C)(C)O)nc34)nc(N3CCC(N)CC3)nc12 [Compound 255]	A (A=greater than 200 fold)

same assay, conditions: CDK5/CDK7

SMILES	CDK5/CDK7: Selectivity of CDK7 inhibition over CDK5 inhibition
CCC(O)(CC)c1ccn(-c2cccc(Cl)c2CNc2nc(N3CCC(N)CC3)nc3c(C(C)C)cnn23)n1 [Compound 253]	B (B=less than 200 fold, but greater than 20 fold)
CC(C)c1cnn2c(NCc3c(Cl)cccc3N3CC[C@@H](C(C)(C)O)C3)nc(N3CCC(N)CC3)nc12 [Compound 254]	B (B=less than 200 fold, but greater than 20 fold)
CC(C)c1cnn2c(NCc3cccc4ccc(C(C)(C)O)nc34)nc(N3CCC(N)CC3)nc12 [Compound 255]	B (B=less than 200 fold, but greater than 20 fold)

same assay, conditions: read-out: CDK7 enzymatic activity (IC50 activity range)

pIC50	SMILES
6.00 to 7.00	CCC(O)(CC)c1ccn(-c2cccc(Cl)c2CNc2nc(N3CCC(N)CC3)nc3c(C(C)C)cnn23)n1 [Compound 253]
> 7.00	CC(C)c1cnn2c(NCc3c(Cl)cccc3N3CC[C@@H](C(C)(C)O)C3)nc(N3CCC(N)CC3)nc12 [Compound 254]
> 7.00	CC(C)c1cnn2c(NCc3cccc4ccc(C(C)(C)O)nc34)nc(N3CCC(N)CC3)nc12 [Compound 255]

system: H460; test: Cellular H460 viability assay (CellTiter-Glo, 72 hours); type: cell-based; conditions: Homo sapiens, NCI-H460
In short: (§2)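 72 h treatment, 37 °C, 5% CO2; DMSO ctrl, final <0.1%; CellTiter-Glo luminescence; n=2.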

pIC50	SMILES
5.00 to 6.00	CCC(O)(CC)c1ccn(-c2cccc(Cl)c2CNc2nc(N3CCC(N)CC3)nc3c(C(C)C)cnn23)n1 [Compound 253]
> 6.00	CC(C)c1cnn2c(NCc3c(Cl)cccc3N3CC[C@@H](C(C)(C)O)C3)nc(N3CCC(N)CC3)nc12 [Compound 254]
> 6.00	CC(C)c1cnn2c(NCc3cccc4ccc(C(C)(C)O)nc34)nc(N3CCC(N)CC3)nc12 [Compound 255]

system: MV4-11; test: Cellular MV4-11 viability assay (CellTiter-Glo, 72 hours); type: cell-based; conditions: Homo sapiens
In short: as §2

pIC50	SMILES
5.00 to 6.00	CCC(O)(CC)c1ccn(-c2cccc(Cl)c2CNc2nc(N3CCC(N)CC3)nc3c(C(C)C)cnn23)n1 [Compound 253]
> 6.00	CC(C)c1cnn2c(NCc3c(Cl)cccc3N3CC[C@@H](C(C)(C)O)C3)nc(N3CCC(N)CC3)nc12 [Compound 254]
> 6.00	CC(C)c1cnn2c(NCc3cccc4ccc(C(C)(C)O)nc34)nc(N3CCC(N)CC3)nc12 [Compound 255]

system: A2780; test: Cellular A2780 viability assay (CellTiter-Glo, 72 hours); type: cell-based; conditions: Homo sapiens
From the text: Human T-cell acute lymphoblastic leukemia cell line, MOLT-4 (ATCC, Cat #CRL-1582), Human multiple myeloma cell line, RPMI-8226 (Invitrogen, Cat #22400-089) and MM.1S (ATCC, Cat #CRL-2974), NSCLC (Non-small cell lung cancer) cell line H460 (ATCC, Cat #HTB-177), Human colon colorectal carcinoma cell line HCT116 (ATCC, Cat #CCL-247), Human acute monocytic leukemia cell line MV4-11 (ATCC, Cat #CRL-9591), OVCAR-3 (ATCC, Cat #HTB-161) and A2780 (ECACC, Cat #93112519) were obtained from ATCC. Cells were grown in RPMI-1640 media (Invitrogen, Cat #22400-089) supplemented with 10% FBS (Invitrogen, Cat #10099141) and 1% penicillin/streptomycin (Invitrogen, Cat #15070063) and cultured at 37° C., 5% CO2 in a humidified chamber. All cell lines were routinely tested for mycoplasma.
The effect of the CDK7 inhibitor to inhibit the growth of target cancer cells was evaluated through the 72 hours time period of viability assay. Briefly, the candidate cell line ware plated in 96 well plate at the following density of cells respectively. 1×10^4 cells/well for MOLT-4, RPMI-8226, MV4-11 and MM.1S, 5×10^3 for H460, HCT116 and OVCAR-3 and IX 10^3 for A2780. After 24 hours, the cells were treated with various concentrations of the compound (ranging from 0.0015 uM to 10 uM). DMSO solvent without compound served as a control and final DMSO concentration less than 0.1%. After 72 hours of incubation at 37° C., 5% CO2 incubator, cells were analyzed for the viability using the CellTiter-Glo Luminescent Cell Viability Assay (Promega, Cat #G7570). All viability assays were performed in duplicate and Luminescence was read using an Envision (Perkin Elmer, USA). Data was analyzed using XLfit software.

pIC50	SMILES
5.00 to 6.00	CCC(O)(CC)c1ccn(-c2cccc(Cl)c2CNc2nc(N3CCC(N)CC3)nc3c(C(C)C)cnn23)n1 [Compound 253]
≥ 6.00	CC(C)c1cnn2c(NCc3c(Cl)cccc3N3CC[C@@H](C(C)(C)O)C3)nc(N3CCC(N)CC3)nc12 [Compound 254]
≥ 6.00	CC(C)c1cnn2c(NCc3cccc4ccc(C(C)(C)O)nc34)nc(N3CCC(N)CC3)nc12 [Compound 255]
